No end group written: not given here.
How the values were obtained:
NEP = test: Modulation of NEP activity, FRET substrate Abz-RGFK(Dnp)-OH; format: biochemical, human; settings: 10 µM peptide, 1.5 ng NEP, Abz-RGFK(Dnp)-OH (3.5 µM in method, 10 µM in table note), Tris HCl 50 mM, pH 7.5, 37 °C, 15 min, fluorescence 320/420 nm, triplicate
Description: The results were obtained by incubating the enzymes with their FRET substrates (10 µM) in a final volume of 100 µL. For the ACE assays, the used buffer was Tris HCl 100 mM, NaCl 50 mM and ZnCl2 10 µM, pH 7.0. For NEP, the assays were made in Tris HCl 50 mM, pH 7.5 buffer. All reactions occurred at 37 °C, in a Victor 3 fluorimeter (Perkin–Elmer) adjusted for excitation and emission readings at 320 and 420 nm, respectively, for 15 min (one reader per minute). Results were obtained in triplicate and analyzed on GraFit 5 software.
For ACE assays, 10 µM of each peptide was incubated with 3.0 ng of peptidase and 10 µM of Abz-FRK (Dnp) P-OH substrate, in Tris HCl 100 mM, NaCl 50 mM and ZnCl2 10 µM, pH 7.0 buffer. For NEP, 10 µM of TsHpt-I or -II was incubated with 1.5 ng of peptidase, 3.5 µM Abz-RGFK (Dnp)-OH in Tris HCl 50 mM, pH 7.5 buffer. All reactions occurred at 37 °C, in a final volume of 100 µL, in a Victor 3 fluorimeter (Perkin–Elmer, Waltham, MA, USA) adjusted for excitation and emission readings at 320 and 420 nm, respectively, for 15 min (one reader per minute). Results were obtained in triplicate and analyzed using GraFit 5 (Erithacus software, East Grinstead, West Sussex, UK).

[1] = tested on: murine peritoneal macrophages; test: Cytokine production by murine peritoneal macrophages, CBA method; format: cell-based, BALB/c mice; settings: 24 h; for release of IL-10, IL-12p70, IFN-γ and MCP-1: 10, 50 and 100 µg/mL, data not shown
Description: Figure 4 Cytokine production by murine peritoneal macrophages stimulated in vitro with TsHpt-I and -II. Peritoneal exudate macrophages from naïve BALB/c mice were cultured for 24 h in the presence of TsHpt-I (A,C) and -II (B,D), at concentrations of 10 µg/mL, 50 µg/mL and 100 µg/mL. Cells cultured with medium alone or in the presence of 5 µg/mL LPS were used as negative and positive controls, respectively. The concentrations of TNF (A,B) and IL-6 (C,D) were determined by the CBA method, according to the manufacturer’s instructions. The results represent the mean ± SD of three independent experiments performed in triplicate. * p < 0.05.
(§1) Peritoneal exudate cells (BALB/c naïve mice, n = 6) were collected by two washes with 5 mL of RPMI medium. The cells obtained were washed twice with RMPI medium, at 400 g, for 10 min, at 18 °C, and resuspended in R10 medium (RPMI + 10% fetal cow serum). After counting in a Neubauer chamber, in the presence of Trypan blue, the cell concentration was adjusted to 2 × 10^6 cells/mL. Cells were distributed into 96-well culture plates (2 × 10^5 cells/100 µL/well) and incubated for 2 h at 37 °C and 5% CO2. After incubation, non-adherent cells were discarded, and adherent cells (macrophages) were resuspended in R10 medium containing the respective tested stimuli, at different concentrations, in triplicates, in a final volume of 200 µL/well. Cells resuspended in R10 medium were used as a negative control, and cells stimulated with LPS (5 µg/mL) as a positive control. Cells were then incubated for 24 h at 37 °C and 5% CO2. After this period, the culture supernatants were collected and stored at −80 °C, for subsequent dosage of cytokines, and cell viability was determined by MTT assay.
The concentration of pro- and anti-inflammatory cytokines (IL-6, IL-10, IL-12p70, […], MCP-1 and TNF) in the samples incubated with both hypotensins (10 µg/mL, 50 µg/mL and 100 µg/mL) was determined by the CBA method (BD Cytometric Bead Array Mouse Inflammation Kit), according to the manufacturer’s instructions. The samples were acquired in a BD FACSCanto II flow cytometer, and the data were analyzed using BD FCAP Array version 3.0 software.

[2] = tested on: murine peritoneal macrophages; test: Cell viability of murine peritoneal macrophages, MTT method; format: cell-based, BALB/c mice; settings: 24 h
Description: Figure 3 Cytotoxic effect of hypotensins I and II on murine peritoneal macrophages in vitro. Peritoneal exudate macrophages from naïve BALB/c mice were cultured for 24 h in the presence of TsHpt-I (A) and -II (B) at concentrations of 10 µg/mL, 50 µg/mL and 100 µg/mL. Cells cultured with medium alone or in the presence of 5 µg/mL LPS were used as the controls. Cell viability was determined by the MTT method. The results represent the mean ± SD of two independent experiments performed in triplicate. * p < 0.05.
as §1
After a 24-h period of incubation of cells with hypotensins (10 µg/mL, 50 µg/mL and 100 µg/mL), MTT assays were performed, consisting of the addition of 100 µL of R10 containing 0.5 mg/mL of tetrazolium salt 3-(4.5-dimethylthiazol-2-yl)-2,5-diphenyltetrazolium bromide (MTT) in all wells, followed by a new incubation, under the same conditions, for 4 h. Then, the supernatants were discarded, and 100 µL/well of DMSO were added to dissolve the formed crystals. Absorbance was determined in a spectrophotometer at 540 nm. Cell viability was calculated based on the absorbances of the samples and the negative control (cells cultivated only with R10).

[3] = 100 µg/mL, three independent experiments in triplicate
[4] = 10 µg/mL, control (medium) = 100%, two independent experiments in triplicate

What does the source list for AEIDFSGIPEDIIKEIKETNAKPPA [TsHpt-II]?
NEP Inhibition (%) (NEP): 11%; release of IL-6 [1, 3]: induced the release of IL-6; release of TNF [1, 3]: release of significant levels of TNF; release of IL-10, IL-12p70, IFN-γ and MCP-1 [1]: None of the peptides were able to induce the release; cell viability [2, 4]: about 75%; cell viability ([2]; 100 µg/mL): not able to decrease cellular viability

With AEIDFSGIPEDIIKQIKETNAKPPA [TsHpt-I] as the sequence, how does the “NEP Inhibition (%)” value (NEP) read?
Its value is 75%.

What about the “release of TNF” value [1, 3] of the same sequence?
Its value is “release of significant levels of TNF”.

And the “release of IL-10, IL-12p70, IFN-γ and MCP-1” value [1]?
Its value is “None of the peptides were able to induce the release”.

What about the cell viability [2, 4] of the same sequence?
Its cell viability is “about 75%”.

And the cell viability ([2]; 100 µg/mL)?
Its cell viability is “not able to decrease cellular viability”.

— publication PMC8704389, “New Insights into the Hypotensins from Tityus serrulatus Venom: Pro-Inflammatory and Vasopeptidases Modulation Activities” (Toxins, 2021)
